Values quoted from earlier work in patent publication US20130131018A1, “SUBSTITUTED ISOQUINOLINES AND THEIR USE AS TUBULIN POLYMERIZATION INHIBITORS” (Exonhit S.A., priority 2010, published 2013).

What was measured:
[1] = test system: blood flow; conditions: animal studies, cited from earlier work
[2] = phase 1 studies, cited from earlier work

**Q.** What does the source list for `COc1ccc(/C=C\c2cc(OC)c(OC)c(OC)c2)cc1OP(=O)([O-])[O-].[Na+].[Na+]` [CA4P, CA-4 disodium phosphate]?
**A.** blood flow decrease in heart, kidney, and intestine ([1]; heart, kidney, intestine): no significant decrease; blood flow reduction in spleen, skeletal muscle, and brain ([1]; spleen, skeletal muscle, brain): less than 7 fold; blood flow reduction in the tumor ([1]; tumor): 100 fold; dose-limiting toxicities ([2]; administered intravenously): dyspnea, neurological disturbances (syncope, motor neuropathy, ataxia), and cardiac and intestinal ischemia; Responses seen in [2]: thyroid cancer, sarcoma, and adrenocortical carcinoma
